According to US20250282820A1, “PEPTIDE COMPLEX HAVING TRKB BINDING ACTIVITY” (PEPTIDREAM INC, priority 2022, published 2025):
*1 amine or outer side, *2 acyl side, *3 side chain or, on linkers, in order; H or OH if unused. Where a SMILES comes first, the peptide text is derived from it. Bridges are numbered along the chain shown (N, C = ends). Roman numbers before positions name the chains, in order. [ ]: non-standard residue; d: D form. ξ: configuration not given here. CO(CH2CH2O)13CH2CH2CO = O=C(CCOCCOCCOCCOCCOCCOCCOCCOCCOCCOCCOCCOCCOCCC(=O)[*:2])[*:1]; X1 = O=C(OCCOCCOCCOCCOCCOCCOCCOCCOCCOCCOCCOCCOC(=O)[*:2])[*:1]; PEG8 = NCCOCCOCCOCCOCCOCCOCCOCCOCCC(=O)O; 3Pal = N[C@@H](Cc1cccnc1)C(=O)O; ξP = O=C(O)C1CCCN1

Columns and labels:
Type in all cases: cell-based
TrkB = TrkB (Homo sapiens, UniProt Q16620); test: PathHunter eXpress TrkB Functional Assay (phosphorylation of TrkB); conditions: stimulation for 3 hours; for Emax: maximum signal induced by BDNF = 100%
Method: To evaluate the TrkB activation potency of the TrkB agonist peptide of the present invention, the phosphorylation of TrkB was examined. The PathHunter (registered trademark) eXpress TrkB Functional Assay kit (DiscoverX; cells, 96-well plate, medium, and detection reagents included) was used and the evaluation was performed according to the attached protocols. The frozen cells were thawed and suspended in the medium, then seeded into a 96-well plate at 10,000 cells per well and incubated for 48 hours. Thereafter, Recombinant Human BDNF Protein (R&D Systems) or a peptide was added, and after stimulation for 3 hours, a detection reagent was added. The reaction was performed while protected from the light at room temperature for 60 minutes, and luminescent signals were measured using a SpectraMax Paradigm Multi-Mode Microplate Reader (Molecular Devices). The obtained signals were analyzed with GraphPad Prism, and the activity (%) was calculated with the maximum value of the signals induced by BDNF as 100% and a signal with no stimulation as 0%.
The BDNF was evaluated at 8 points (0.006 nM to 100 nM) from 100 nM using 4-fold dilutions. The peptide was evaluated in the measurement ranges A to C shown below. • Measurement range A=6 points from 100 nM using 5-fold dilutions (0.032 nM to 100 nM) • Measurement range B=8 points from 100 nM using 4-fold dilutions (0.006104 nM to 100 nM) • Measurement range C=4 points from 10 nM using 10-fold dilutions (0.01 nM to 10 nM)

[1] = target: T1, TrkB (CellSensor TrkB-NFAT-bla CHO-K1 Cell) (Homo sapiens, UniProt Q16620); test: NFAT transcriptional reporter assay for TrkB agonist activity; conditions: class = peptide concentration giving 50% or more activity; BDNF maximum signal = 100%, no stimulation = 0%; 5 hours culture
T1 construct: host or cells: CHO-K1 (CellSensor TrkB-NFAT-bla CHO-K1)
Method: To evaluate the TrkB activation potency of the TrkB agonist peptide of the present invention, transcriptional activity was examined using transcriptional reporters. The CellSensor (registered trademark) TrkB-NFAT-bla CHO-K1 Cell (Invitrogen) used in the AlphaLISA assay was cultured in the medium above. After the cells were detached using Accutase (Innovative Cell Technologies), the cells were suspended in an assay medium, wherein Blasticidin and Zeocin were removed, then seeded into a 96-well plate for adherent cultures at 12,500 cells per well and cultured overnight. Then, BDNF or a peptide was added thereto, and the cells were further cultured in a CO2 incubator for 5 hours. After the 96-well plate was removed from the incubator and brought to room temperature, a detection reagent (LiveBLAzer (registered trademark)-FRET B/G (CCF4-AM) Substrate Mixture) was added while protected from the light, and the 96-well plate was incubated while protected from the light in a moisture box with a lid for 2 hours. For signal detection, a EnVision 2104 Multilabel Plate Reader (PerkinElmer) was used, and the ratio of fluorescence emission value (460 nm/535 nm) was calculated. The obtained numerical values were analyzed with GraphPad Prism, and the activity (%) was calculated with the maximum value of the signals induced by BDNF as 100% and a signal with no stimulation as 0%. The peptide with 50% or more activity when 1 nM of the peptide was added was evaluated as A, the peptide with 50% or more activity when 10 nM of the peptide was added was evaluated as B, and the peptide with 50% or more activity when 100 nM of the peptide was added was evaluated as C. Those that were not evaluated were listed as not tested.
The BDNF was evaluated at 7 points (0.0024 nM to 10 nM) from 10 nM using 4-fold dilutions.
(§1) For dimer structures Nos. 1 to 3, the peptide was evaluated at 1 nM, 10 nM, and 100 nM, and, for other dimer structure numbers, the peptide was evaluated at 0.1 nM, 1 nM, and 10 nM. When creating the concentration dependence curve, the BDNF and the peptides were evaluated at 7 points (0.006 nM to 100 nM) from 25 nM using 4-fold dilutions.

[2] = target: T1, TrkB (CellSensor TrkB-NFAT-bla CHO-K1 Cell); test: pERK1/2 AlphaLISA assay (phosphorylation of ERK) for TrkB agonist activity; conditions: class = peptide concentration giving 50% or more activity; BDNF maximum signal = 100%, no stimulation = 0%; 15 minutes of stimulation
Method: To evaluate the TrkB activation potency of the TrkB agonist peptide of the present invention, the phosphorylation of ERK was examined. CellSensor (registered trademark) TrkB-NFAT-bla CHO-K1 Cell (Invitrogen) was cultured in DMEM, high glucose, GlutaMAX (registered trademark) Supplement, and pyruvate (Thermo), comprising 10% FBS (Thermo) and 1× Non-essential amino acids (Thermo), 25 mM HEPES (Thermo), 50 ug/mL Gentamicin, 5 ug/mL Blasticidin (Thermo), and 200 ug/mL Zeocin (Thermo). After the cells were detached using Accutase (Innovative Cell Technologies), they were seeded into a 96-well plate for adherent cultures at 12,500 cells per well and cultured overnight. The next day, for starvation, the culture solution above was replaced with a nutrient starvation medium comprising 0.1% BSA (Sigma), wherein FBS, Blasticidin, and Zeocin were removed from the culture medium, and culturing was performed for 4 hours. Thereafter, Recombinant Human BDNF Protein (R&D Systems) or a peptide was added, and after 15 minutes of stimulation, cells were lysed in the Lysis Buffer provided with the AlphaLISA SureFire Ultra p-Erk1/2 (Thr202/Tyr204) assay kit (PerkinElmer). The assay was performed according to the kit protocol. The signals were detected using a SpectraMax Paradigm Multi-Mode Microplate Reader (Molecular Devices). The obtained signals were analyzed with GraphPad Prism, and the activity (%) was calculated with the maximum value of the signals induced by BDNF as 100% and a signal with no stimulation as 0%. The peptide with 50% or more activity when 1 nM of the peptide was added was evaluated as A, and the peptide with 50% or more activity when 10 nM of the peptide was added was evaluated as B.
The BDNF was evaluated at 8 points (0.0006 nM to 10 nM) from 10 nM using 4-fold dilutions.
as §1, with “8” for “7”, “100” for “25”

Chain of TrkB (Q16620 32-822): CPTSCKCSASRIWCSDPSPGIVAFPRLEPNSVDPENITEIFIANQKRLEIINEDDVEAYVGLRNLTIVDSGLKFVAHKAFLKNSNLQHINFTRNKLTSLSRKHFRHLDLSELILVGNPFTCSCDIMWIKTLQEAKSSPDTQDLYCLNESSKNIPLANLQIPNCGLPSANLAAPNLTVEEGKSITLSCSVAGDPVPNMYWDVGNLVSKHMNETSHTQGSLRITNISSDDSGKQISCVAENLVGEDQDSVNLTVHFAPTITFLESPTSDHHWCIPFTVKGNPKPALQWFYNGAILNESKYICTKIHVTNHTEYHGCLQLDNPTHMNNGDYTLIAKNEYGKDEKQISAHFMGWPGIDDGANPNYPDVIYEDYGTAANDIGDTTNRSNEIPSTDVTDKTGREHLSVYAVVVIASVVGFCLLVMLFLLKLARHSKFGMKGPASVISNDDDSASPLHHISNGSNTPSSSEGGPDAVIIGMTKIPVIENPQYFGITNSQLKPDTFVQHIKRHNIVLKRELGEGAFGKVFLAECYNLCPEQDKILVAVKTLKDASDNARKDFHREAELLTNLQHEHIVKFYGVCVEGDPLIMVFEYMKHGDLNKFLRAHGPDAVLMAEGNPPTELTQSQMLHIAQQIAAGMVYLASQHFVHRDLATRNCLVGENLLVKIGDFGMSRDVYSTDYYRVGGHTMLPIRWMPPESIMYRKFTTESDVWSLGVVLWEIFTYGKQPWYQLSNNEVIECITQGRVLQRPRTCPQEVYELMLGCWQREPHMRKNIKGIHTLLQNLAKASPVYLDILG
T1 sequence (Q16620 32-822): as above

| SMILES | Emax (TrkB) [%] | NFAT Assay Results [1] | pERK (aLISA) Assay Results [2] | EC50 (TrkB) [nM] |
| --- | --- | --- | --- | --- |
| CC(C)[C@@H]1NC(=O)[C@H](Cc2cccnc2)NC(=O)[C@H](CCC(=O)O)NC(=O)[C@H](CO)NC(=O)[C@H](Cc2ccc(O)cc2)NC(=O)[C@H]([C@@H](C)O)NC(=O)[C@@H]2CCCN2C(=O)[C@H](Cc2c[nH]c3ccccc23)NC(=O)[C@H](Cc2cccnc2)NC(=O)[C@H](Cc2ccc(O)cc2)NC(=O)[C@@H]2CCCN2C(=O)[C@H](CCC(=O)O)NC(=O)[C@H](Cc2ccccc2)NC(=O)CSC[C@@H](C(=O)NCC(=O)NCCOCCOCCOCCOCCOCCOCCOCCOCCC(=O)NCCCC[C@H](NC(=O)CCOCCOCCOCCOCCOCCOCCOCCOCCNC(=O)CNC(=O)[C@@H]2CSCC(=O)N[C@@H](Cc3ccccc3)C(=O)N[C@@H](CCC(=O)O)C(=O)N3CCC[C@H]3C(=O)N[C@@H](Cc3ccc(O)cc3)C(=O)N[C@@H](Cc3cccnc3)C(=O)N[C@@H](Cc3c[nH]c4ccccc34)C(=O)N3CCC[C@H]3C(=O)N[C@@H]([C@@H](C)O)C(=O)N[C@@H](Cc3ccc(O)cc3)C(=O)N[C@@H](CO)C(=O)N[C@@H](CCC(=O)O)C(=O)N[C@@H](Cc3cccnc3)C(=O)N[C@@H](C(C)C)C(=O)N[C@@H](CO)C(=O)N2)C(N)=O)NC(=O)[C@H](CO)NC1=O [compound 18] (I: {CH2CO}-FEPY[3Pal]WPTYSE[3Pal]VSCG[PEG8]K-NH2 / II: {CH2CO}-FEPY[3Pal]WPTYSE[3Pal]VSCG[PEG8]; amide I:18-II:C (inferred); thioether I:N-I:15, II:N-II:15 (inferred)) | 93 | A (The peptide with 50% or more activity when 1 nM of the peptide was added was evaluated as A) | A (The peptide with 50% or more activity when 1 nM of the peptide was added was evaluated as A) |  |
| CC(C)[C@@H]1NC(=O)[C@H](Cc2cccnc2)NC(=O)[C@H](CCC(=O)O)NC(=O)[C@H](CO)NC(=O)[C@H](Cc2ccc(O)cc2)NC(=O)[C@H]([C@@H](C)O)NC(=O)C2CCCN2C(=O)[C@H](Cc2c[nH]c3ccccc23)NC(=O)[C@H](Cc2cccnc2)NC(=O)[C@H](Cc2ccc(O)cc2)NC(=O)[C@@H]2CCCN2C(=O)[C@H](CO)NC(=O)[C@H](Cc2ccccc2)NC(=O)CSC[C@@H](C(=O)NCC(=O)N[C@@H](CCCCNC(=O)CCOCCOCCOCCOCCOCCOCCOCCOCCOCCOCCOCCOCCOCCC(=O)NCCCC[C@H](NC(=O)CNC(=O)[C@@H]2CSCC(=O)N[C@@H](Cc3ccccc3)C(=O)N[C@@H](CO)C(=O)N3CCC[C@H]3C(=O)N[C@@H](Cc3ccc(O)cc3)C(=O)N[C@@H](Cc3cccnc3)C(=O)N[C@@H](Cc3c[nH]c4ccccc34)C(=O)N3CCC[C@H]3C(=O)N[C@@H]([C@@H](C)O)C(=O)N[C@@H](Cc3ccc(O)cc3)C(=O)N[C@@H](CO)C(=O)N[C@@H](CCC(=O)O)C(=O)N[C@@H](Cc3cccnc3)C(=O)N[C@@H](C(C)C)C(=O)N[C@@H](CCC(=O)O)C(=O)N2)C(N)=O)C(N)=O)NC(=O)[C@H](CCC(=O)O)NC1=O (stereo partly shown) [Dimer Structure No. 48] (I: {CH2CO}-FSPY[3Pal]WPTYSE[3Pal]VECGK-NH2 / II: {CH2CO}-FSPY[3Pal]W[ξP]TYSE[3Pal]VECGK-NH2; linker I:17-II:17 via CO(CH2CH2O)13CH2CH2CO; thioether I:N-I:15, II:N-II:15) | 89 | B (the peptide with 50% or more activity when 10 nM of the peptide was added was evaluated as B) | B (the peptide with 50% or more activity when 10 nM of the peptide was added was evaluated as B) | 0.8 to 4 |
| CC(C)[C@@H]1NC(=O)[C@H](Cc2cccnc2)NC(=O)[C@H](CCC(=O)O)NC(=O)[C@H](CO)NC(=O)[C@H](Cc2ccc(O)cc2)NC(=O)[C@H]([C@@H](C)O)NC(=O)[C@@H]2CCCN2C(=O)[C@H](Cc2c[nH]c3ccccc23)NC(=O)[C@H](Cc2cccnc2)NC(=O)[C@H](Cc2ccc(O)cc2)NC(=O)[C@@H]2CCCN2C(=O)[C@H](CO)NC(=O)[C@H](Cc2ccccc2)NC(=O)CSC[C@@H](C(=O)NCC(=O)N[C@@H](CCCCNC(=O)OCCOCCOCCOCCOCCOCCOCCOCCOCCOCCOCCOCCOC(=O)NCCCC[C@H](NC(=O)CNC(=O)[C@@H]2CSCC(=O)N[C@@H](Cc3ccccc3)C(=O)N[C@@H](CO)C(=O)N3CCC[C@H]3C(=O)N[C@@H](Cc3ccc(O)cc3)C(=O)N[C@@H](Cc3cccnc3)C(=O)N[C@@H](Cc3c[nH]c4ccccc34)C(=O)N3CCC[C@H]3C(=O)N[C@@H]([C@@H](C)O)C(=O)N[C@@H](Cc3ccc(O)cc3)C(=O)N[C@@H](CO)C(=O)N[C@@H](CCC(=O)O)C(=O)N[C@@H](Cc3cccnc3)C(=O)N[C@@H](C(C)C)C(=O)N[C@@H](CCC(=O)O)C(=O)N2)C(N)=O)C(N)=O)NC(=O)[C@H](CCC(=O)O)NC1=O [compound 55] (I: {CH2CO}-FSPY[3Pal]WPTYSE[3Pal]VECGK-NH2 / II: {CH2CO}-FSPY[3Pal]WPTYSE[3Pal]VECGK-NH2; linker I:17-II:17 via X1; thioether I:N-I:15, II:N-II:15) | 104 | A (The peptide with 50% or more activity when 1 nM of the peptide was added was evaluated as A) | A (The peptide with 50% or more activity when 1 nM of the peptide was added was evaluated as A) |  |
